Patent US12280037B2, “Method and pharmaceutical composition for treating or preventing trichomoniasis and uses thereof” (EVOFEM BIOSCIENCES, INC., priority 2020, dated 2025)
Read-outs that look alike come from different tables or passages of the source. Values belong to the compound of their own block, whether it stands above or below them.

Experiments:
[1] = EE2 plasma pharmacokinetics alone and with SYM-1219 2 grams (Example 2, Part B); format: in vivo, human
[2] = clinical; conditions: female, human, plasma, Mean (% CV); for AUC(0-t): NET AUC0-t; for AUC(0-inf): NET AUC0-∞; for Cmax: NET Cmax
[3] = system: T. vaginalis; conditions: CDC 2015 Guidelines - Trichomoniasis; cited from earlier work
[4] = CDC 2015 Guidelines - Trichomoniasis; cited from earlier work
[5] = Group B1 (SYM-1219 2 grams co-administered on Day 1)
[6] = Group B1: Period 2 (SYM-1219 2 grams same day) vs Period 1 (EE2/NET alone)
[7] = Group B1 Period 1: EE2/NET alone
[8] = Group B1 Period 2: EE2/NET followed by SYM-1219 2 grams on Day 1
[9] = Group B2 (EE2/NET 1 day after SYM-1219 2 grams)
[10] = Group B2: Period 2 (EE2/NET 1 day after SYM-1219 2 grams) vs Period 1 (EE2/NET alone)
[11] = Group B2 Period 1: EE2/NET alone
[12] = Group B2 Period 2: SYM-1219 2 grams on Day 1, EE2/NET on Day 2

Change in EE2 AUC [1, 5]: no change
EE2 Cmax reduced by [1, 5]: 29%
EE2 AUC0-t, Geometric LSMean % Ratio (SE), 100*Test/Reference [1, 6]: 94.26 (2.683) %
EE2 AUC0-∞, Geometric LSMean % Ratio (SE), 100*Test/Reference [1, 6]: 105.37 (4.565) %
EE2 Cmax, Geometric LSMean % Ratio (SE), 100*Test/Reference [1, 6]: 71.07 (4.951) %
EE2 AUC0-t, Mean (% CV) [1, 7]: 643.67 (23.85) h*pg/mL
EE2 Cmax, Geometric Least Squares (LS) Means (SE) [1, 7]: 77.92 (3.839) pg/mL
EE2 Cmax, Mean (% CV) [1, 7]: 80.63 (26.84) pg/mL
EE2 AUC0-t, Geometric Least Squares (LS) Means (SE) [1, 8]: 590.74 (11.892) h*pg/mL
EE2 Cmax, Geometric Least Squares (LS) Means (SE) [1, 8]: 55.38 (2.728) pg/mL
EE2 Cmax, Mean (% CV) [1, 8]: 59.88 (42.19) pg/mL
EE2 PK alteration [1, 9]: not altered
EE2 AUC0-t, Geometric LSMean % Ratio (SE), 100*Test/Reference [1, 10]: 99.04 (2.291) %
EE2 AUC0-∞, Geometric LSMean % Ratio (SE), 100*Test/Reference [1, 10]: 93.32 (3.570) %
EE2 Cmax, Geometric LSMean % Ratio (SE), 100*Test/Reference [1, 10]: 104.96 (4.034) %
EE2 AUC0-t, Geometric Least Squares (LS) Means (SE) [1, 11]: 649.96 (10.631) h*pg/mL
EE2 AUC0-t, Mean (% CV) [1, 11]: 680.48 (28.91) h*pg/mL
EE2 AUC0-t, Geometric Least Squares (LS) Means (SE) [1, 12]: 643.74 (10.529) h*pg/mL
EE2 Cmax, Geometric Least Squares (LS) Means (SE) [1, 12]: 87.16 (2.369) pg/mL
SMILES: C#C[C@]1(O)CC[C@H]2[C@@H]3CCc4cc(O)ccc4[C@H]3CC[C@@]21C [EE2, ethinyl estradiol]

AUC(0-t) [2, 7]: 49.4 ng·h/mL
AUC(0-t) [2, 8]: 53.5 ng·h/mL
AUC(0-t) [2, 11]: 61.4 ng·h/mL
AUC(0-t) [2, 12]: 61.2 ng·h/mL
AUC(0-inf) [2, 7]: 57.8 ng·h/mL
AUC(0-inf) [2, 8]: 62.4 ng·h/mL
AUC(0-inf) [2, 11]: 75 ng·h/mL
AUC(0-inf) [2, 12]: 71.5 ng·h/mL
Cmax [2, 7]: 9.18 ng/mL
Cmax [2, 8]: 10.1 ng/mL
Cmax [2, 11]: 9.63 ng/mL
NET Cmax, AUC0-t or AUC0-∞ increased by (EE2/NET administered 1 day after SYM-1219): 9-16%
NET Cmax and AUC increased [5]: 13%
NET AUC0-t, Geometric LSMean % Ratio (SE), 100*Test/Reference [6]: 115.52 (5.828) %
NET AUC0-∞, Geometric LSMean % Ratio (SE), 100*Test/Reference [6]: 116.27 (6.032) %
NET Cmax, Geometric LSMean % Ratio (SE), 100*Test/Reference [6]: 113.18 (7.958) %
NET λz, Mean [7]: 0.07709 h⁻¹
NET λz, Median [7]: 0.07966 h⁻¹
NET t1/2, Median [8]: 9.12 h
NET λz, Mean [8]: 0.07886 h⁻¹
NET λz, Median [8]: 0.07642 h⁻¹
Change in NET AUC [9]: no change
NET Cmax increased by [9]: 16%
NET AUC0-t, Geometric LSMean % Ratio (SE), 100*Test/Reference [10]: 110.78 (4.104) %
NET AUC0-∞, Geometric LSMean % Ratio (SE), 100*Test/Reference [10]: 108.75 (4.207) %
NET Cmax, Geometric LSMean % Ratio (SE), 100*Test/Reference [10]: 116.46 (8.178) %
NET AUC0-∞, Median [11]: 47.35 ng·h/mL
NET t1/2, Median [11]: 9.29 h
NET λz, Mean [11]: 0.07369 h⁻¹
NET λz, Median [11]: 0.07458 h⁻¹
NET AUC0-t, Median [12]: 44.53 ng·h/mL
NET Cmax, Mean (% CV) [12]: 10.69 (48.34) ng/mL
NET Cmax, Mean (SD) [12]: 10.69 (5.169) ng/mL
NET Tmax, Median [12]: 1.000 h
NET t1/2, Median [12]: 9.19 h
NET λz, Mean [12]: 0.07685 h⁻¹
NET λz, Median [12]: 0.07539 h⁻¹
NET Cmax, AUC0-t or AUC0-∞ increased by (SYM-1219 administered immediately after EE2/NET): 13-16%
SMILES: C#C[C@]1(O)CC[C@H]2[C@@H]3CCC4=CC(=O)CC[C@@H]4[C@H]3CC[C@@]21C [NET, norethindrone]

SMILES: CCS(=O)(=O)CCn1c([N+](=O)[O-])cnc1C [tinidazole]
Cure rates in randomized clinical trials of recommended regimens [3]: 92%-100%
Half-life [4]: 12.5 h
